The source made the active and inactive calls.
Columns and labels:
[1] = molecular target: T1, Carboxy-terminal domain RNA polymerase II polypeptide A small phosphatase 1 (Homo sapiens, UniProt Q9GZU7); test: CTDSP1 inhibitors, concentration-response, biochemical, absorbance readout, ultra-high-throughput screen actives (AID 540297); format: functional
T1 sequence (Q9GZU7 whole entry): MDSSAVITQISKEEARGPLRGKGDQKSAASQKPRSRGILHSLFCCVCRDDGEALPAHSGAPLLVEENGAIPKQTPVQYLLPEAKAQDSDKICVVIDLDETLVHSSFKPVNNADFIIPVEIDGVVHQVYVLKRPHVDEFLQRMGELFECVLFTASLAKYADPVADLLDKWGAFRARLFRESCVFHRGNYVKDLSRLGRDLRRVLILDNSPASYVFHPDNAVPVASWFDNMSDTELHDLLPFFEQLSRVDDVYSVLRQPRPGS

[2] = molecular target: Induced myeloid leukemia cell differentiation protein Mcl-1 (Homo sapiens, UniProt Q07820); format: functional
Chain of Induced myeloid leukemia cell differentiation protein Mcl-1 (Q07820 whole entry): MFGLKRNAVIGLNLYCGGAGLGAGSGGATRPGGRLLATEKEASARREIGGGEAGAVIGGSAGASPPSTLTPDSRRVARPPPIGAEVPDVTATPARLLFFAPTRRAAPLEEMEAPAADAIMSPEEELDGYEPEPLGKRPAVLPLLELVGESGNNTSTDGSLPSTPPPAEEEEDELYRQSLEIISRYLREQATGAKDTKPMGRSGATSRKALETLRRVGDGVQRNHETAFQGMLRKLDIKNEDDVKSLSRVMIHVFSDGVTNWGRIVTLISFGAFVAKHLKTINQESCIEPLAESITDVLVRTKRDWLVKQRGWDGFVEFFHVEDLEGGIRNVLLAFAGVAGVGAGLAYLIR

Large T antigen = Large T antigen (Simian virus 40, UniProt P03070); format: functional, Betapolyomavirus macacae;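 further: Confirmatory-stage PubChem screen for compounds that inhibit SV40 T antigen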
Chain of Large T antigen (P03070 whole entry): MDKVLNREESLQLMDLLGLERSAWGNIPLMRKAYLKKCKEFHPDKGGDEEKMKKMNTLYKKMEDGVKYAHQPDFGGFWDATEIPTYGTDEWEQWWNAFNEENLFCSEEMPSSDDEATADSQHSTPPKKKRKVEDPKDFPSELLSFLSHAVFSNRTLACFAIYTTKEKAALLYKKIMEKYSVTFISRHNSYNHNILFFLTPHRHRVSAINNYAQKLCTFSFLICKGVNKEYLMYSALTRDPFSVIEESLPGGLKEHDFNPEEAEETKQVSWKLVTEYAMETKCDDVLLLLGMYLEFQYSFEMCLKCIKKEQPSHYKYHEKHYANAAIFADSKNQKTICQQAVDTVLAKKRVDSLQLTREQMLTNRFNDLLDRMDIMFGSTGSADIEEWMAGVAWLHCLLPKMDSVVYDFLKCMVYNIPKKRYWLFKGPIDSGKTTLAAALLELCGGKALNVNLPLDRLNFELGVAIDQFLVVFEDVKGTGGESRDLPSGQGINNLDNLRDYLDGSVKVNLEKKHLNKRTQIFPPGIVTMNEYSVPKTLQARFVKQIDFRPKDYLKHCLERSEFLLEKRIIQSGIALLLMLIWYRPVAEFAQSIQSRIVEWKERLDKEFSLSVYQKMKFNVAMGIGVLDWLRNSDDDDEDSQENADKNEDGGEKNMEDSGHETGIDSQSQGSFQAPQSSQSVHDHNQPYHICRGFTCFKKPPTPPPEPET

[3] = P. falciparum Dd2 growth inhibitors, dose response, SYBR Green, cherry-picked samples (AID 1159567); format: functional, cell-based
Protein skinhead-1 = molecular target: T2, Protein skinhead-1 (Caenorhabditis elegans, UniProt P34707); format: functional
T2 sequence (P34707 whole entry): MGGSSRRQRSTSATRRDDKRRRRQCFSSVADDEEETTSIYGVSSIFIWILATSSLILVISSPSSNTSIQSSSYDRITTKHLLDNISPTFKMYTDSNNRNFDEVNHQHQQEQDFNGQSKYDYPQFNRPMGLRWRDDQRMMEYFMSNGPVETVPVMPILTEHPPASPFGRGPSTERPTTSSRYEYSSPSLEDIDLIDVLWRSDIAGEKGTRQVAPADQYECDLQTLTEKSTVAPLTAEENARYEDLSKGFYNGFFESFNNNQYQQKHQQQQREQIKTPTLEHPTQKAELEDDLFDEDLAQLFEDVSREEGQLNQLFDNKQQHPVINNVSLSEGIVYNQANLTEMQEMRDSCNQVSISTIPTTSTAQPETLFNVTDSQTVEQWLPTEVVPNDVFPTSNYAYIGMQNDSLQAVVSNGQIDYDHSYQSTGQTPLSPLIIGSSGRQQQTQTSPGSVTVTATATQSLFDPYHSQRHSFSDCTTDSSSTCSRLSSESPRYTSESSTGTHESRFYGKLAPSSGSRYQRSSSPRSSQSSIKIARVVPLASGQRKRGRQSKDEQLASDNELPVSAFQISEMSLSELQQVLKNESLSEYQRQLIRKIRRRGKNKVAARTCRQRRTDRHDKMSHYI

[4] = molecular target: FAD-linked sulfhydryl oxidase ALR (Homo sapiens, UniProt P55789); test: ALR-catalysed DTT oxidation blockers – biochemical, H2O2 detection, luminescence, cherry-pick, dose response (AID 493248)
Chain of FAD-linked sulfhydryl oxidase ALR (P55789 whole entry): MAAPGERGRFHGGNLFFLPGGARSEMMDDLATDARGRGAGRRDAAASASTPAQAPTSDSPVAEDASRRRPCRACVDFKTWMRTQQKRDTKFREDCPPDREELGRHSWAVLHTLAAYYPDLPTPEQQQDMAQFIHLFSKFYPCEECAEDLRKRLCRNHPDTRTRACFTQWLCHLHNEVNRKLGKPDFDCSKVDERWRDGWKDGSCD

[5] = molecular target: T3, Calpain-2 catalytic subunit (Sus scrofa, UniProt P43367); test: m-calpain protease blockers, concentration series – biochemical, fluorogenic peptide substrate, dose response (AID 1420); format: functional
T3 sequence (P43367 whole entry): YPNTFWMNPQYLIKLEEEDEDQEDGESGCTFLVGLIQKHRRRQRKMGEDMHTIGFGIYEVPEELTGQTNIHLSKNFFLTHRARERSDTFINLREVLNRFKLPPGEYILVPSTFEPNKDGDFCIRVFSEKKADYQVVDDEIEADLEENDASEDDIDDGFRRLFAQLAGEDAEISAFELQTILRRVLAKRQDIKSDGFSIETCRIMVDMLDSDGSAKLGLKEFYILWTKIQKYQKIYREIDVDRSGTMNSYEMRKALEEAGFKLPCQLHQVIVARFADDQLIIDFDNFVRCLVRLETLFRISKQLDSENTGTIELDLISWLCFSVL

[6] = HIV-1 AD8 envelope cell-cell fusion blockers – cherry-pick, dose response (AID 652062); format: functional, cell-based;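 further: luciferase signal from cell-cell fusion driven by HIV-1 clade B AD8 Env; potency is for inhibitors of fusion seen as a drop in luminescence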
Cytochrome P450 2C9 = Cytochrome P450 2C9 (Homo sapiens, UniProt P11712)
Chain of Cytochrome P450 2C9 (P11712 whole entry, the tested form may be a part): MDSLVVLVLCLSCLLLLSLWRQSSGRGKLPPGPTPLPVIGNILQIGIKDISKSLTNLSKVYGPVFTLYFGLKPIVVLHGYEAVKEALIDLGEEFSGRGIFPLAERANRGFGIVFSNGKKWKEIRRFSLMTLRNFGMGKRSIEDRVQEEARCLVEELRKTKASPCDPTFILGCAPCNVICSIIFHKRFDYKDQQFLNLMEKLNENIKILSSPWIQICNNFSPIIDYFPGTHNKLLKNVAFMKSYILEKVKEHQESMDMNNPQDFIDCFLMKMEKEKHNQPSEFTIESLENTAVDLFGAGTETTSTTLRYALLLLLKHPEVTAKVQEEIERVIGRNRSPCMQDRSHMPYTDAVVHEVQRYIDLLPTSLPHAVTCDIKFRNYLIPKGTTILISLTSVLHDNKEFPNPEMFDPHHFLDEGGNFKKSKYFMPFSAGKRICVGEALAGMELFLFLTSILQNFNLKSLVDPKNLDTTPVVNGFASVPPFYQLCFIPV

[7] = blockers of HIV-1 envelope-mediated cell-cell fusion – cherry-pick, dose response (AID 652057); format: functional, cell-based
[8] = molecular target: T4, RNA-binding protein pos-1 (Caenorhabditis elegans, UniProt G5EF15); test: disruptors of C. elegans POS-1 RNA interaction – biochemical, fluorescence polarization, dose response (AID 1964);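 further: purified POS-1 fused to maltose binding protein made in E. coli; potency of compounds blocking POS-1 binding to fluorescent RNA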
T4 sequence (G5EF15 whole entry): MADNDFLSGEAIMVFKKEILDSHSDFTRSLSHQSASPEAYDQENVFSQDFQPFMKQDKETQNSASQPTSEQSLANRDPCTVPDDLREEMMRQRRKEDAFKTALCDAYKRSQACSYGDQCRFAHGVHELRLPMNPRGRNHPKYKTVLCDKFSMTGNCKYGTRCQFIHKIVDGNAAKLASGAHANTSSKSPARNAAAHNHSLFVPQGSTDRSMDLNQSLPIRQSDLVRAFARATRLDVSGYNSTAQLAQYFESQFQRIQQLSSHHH

[9] = molecular target: T5, Zinc finger protein mex-5 (Caenorhabditis elegans, UniProt Q9XUB2); test: potency of MEX-5 RNA-binding blockers – biochemical, C. elegans, fluorescence polarization, dose response (AID 1960)
T5 sequence (Q9XUB2 whole entry): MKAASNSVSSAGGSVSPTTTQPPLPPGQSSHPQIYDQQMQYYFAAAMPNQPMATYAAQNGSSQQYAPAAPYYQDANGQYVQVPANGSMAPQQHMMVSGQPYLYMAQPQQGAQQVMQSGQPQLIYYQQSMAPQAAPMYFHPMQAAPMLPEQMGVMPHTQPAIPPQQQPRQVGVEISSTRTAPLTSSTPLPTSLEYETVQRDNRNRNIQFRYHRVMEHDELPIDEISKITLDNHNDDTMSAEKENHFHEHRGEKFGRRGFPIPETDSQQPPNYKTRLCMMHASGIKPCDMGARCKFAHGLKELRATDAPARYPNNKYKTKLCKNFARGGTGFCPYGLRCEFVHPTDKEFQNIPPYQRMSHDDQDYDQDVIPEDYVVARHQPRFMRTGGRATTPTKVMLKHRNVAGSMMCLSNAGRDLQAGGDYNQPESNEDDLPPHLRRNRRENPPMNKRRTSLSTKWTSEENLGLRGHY

With `C=CCNC(=O)c1ccc(Cn2c(=S)[nH]c3cc4c(cc3c2=O)OCO4)cc1` the IC50 [1] was 8.27 µM (active).

With `COc1cc(/C=N\Nc2nc(-c3cccs3)c(NC(C)=O)s2)ccc1O` the IC50 [2] was 2.72 µM (active) and the IC50 (Large T antigen) was 27.8 µM (active).

With `COc1ccc2c3c(n(C)c2c1)[C@H](CO)N(Cc1ccccc1OC)CC31CN(CC2CCOCC2)C1` the AC50 [3] was 4.81 µM (active).

In the case of `COc1ccc2c3c([nH]c2c1)[C@@H](CO)N(Cc1cc(F)ccc1F)CC31CN(C(=O)C2CCC2)C1`, the AC50 [3] is reported as 6.17 µM (active).

In the case of `Fc1ccc(OCc2nc3ccccc3s2)cc1`, the IC50 (Protein skinhead-1) is reported as > 100 µM (inactive).

For `COCCN(C(=O)COC(=O)Cc1coc2cc3c(cc12)CCC3)c1c(N)n(Cc2ccccc2)c(=O)[nH]c1=O`, the IC50 [1] was 6.23 µM (active).

For `Cc1cccc(NC2=NC(=O)/C(=C/C=C/c3ccco3)S2)c1`, the IC50 [2] was 11.4 µM (active).

In the case of `O=C(OCc1ccccc1)Oc1cncc(C(=O)O)c1`, the AC50 [4] is reported as 0.072 µM (active).

With `COc1ccc2c3c(n(C)c2c1)[C@@H](CO)N(C(=O)Nc1ccccc1F)CC31CCN(C)CC1` the AC50 [3] was 5.95 µM (active).

In the case of `O=C(Nc1ccc2c(c1)nc1n2CCN(C2CCCCC2)C1)c1ccco1`, the IC50 [2] is reported as 6.52 µM (active).

For `CCOC(=O)/C=C1\CC(C(=O)OCC)Oc2c(OC)cccc21` (stereo unspecified), the IC50 [1] was 16.7 µM (active).

With `O=C(COC(=O)CC12CC3CC(CC(C3)C1)C2)Nc1cccnc1Cl` the IC50 [5] was > 50 µM (not active).

With `O=C(NCCCN1CCc2ccccc2C1)Nc1ccc(Cl)cc1` the AC50 [6] was 39.9 µM (active), the AC50 (Cytochrome P450 2C9) was 14.1 µM (inconclusive) and the AC50 [7] was 3.52 µM (active).

For `CC(C)c1cn([C@H]2C[C@@H]3O[C@H](CO)CC[C@@H]3O[C@@H]2CCc2ccc(C#CC3(O)CCCC3)cc2)nn1`, the AC50 [3] was 6.12 µM (active).

For `N#Cc1c(-c2ccco2)cc(-c2ccccc2)[nH]c1=O`, the IC50 (Large T antigen) was 68.7 µM (active).

In the case of `O=C(CSc1nnc(CNc2ccc(F)cc2)n1Cc1ccco1)NC1CC1`, the IC50 (Protein skinhead-1) is reported as > 100 µM (inactive).

With `CC(=O)c1ccc(S(=O)(=O)N2CCNC(=O)C2)cc1` the AC50 [4] was 3.33 µM (active).

In the case of `COc1cc(/C=N/NC(=O)CCc2c(C)n[nH]c2C)ccc1O`, the IC50 (Large T antigen) is reported as 12.9 µM (active).

With `CCN(CC)c1ccc(N/C=C2\C(=O)NC(=O)N(c3cc(OC)ccc3OC)C2=O)cc1` the EC50 [8] was > 300 µM (not active), the IC50 (Large T antigen) was 19.8 µM (active) and the EC50 [9] was > 300 µM (not active).

With `COC(=O)c1cc(-c2cccc(OC)c2)[nH]n1` the IC50 (Protein skinhead-1) was > 100 µM (inactive).

With `Cc1ccc(SCCNC(=O)CN2C(=O)c3ccccc3S2(=O)=O)cc1` the IC50 (Protein skinhead-1) was > 100 µM (inactive).
